Converted amounts (≈) assume the structure as drawn.
Experiments:
S. aureus isolates = experiment: microbe, parasite or virus in culture; settings: Staphylococcus aureus
Method: 306 To determine the minimum concentration of peptide that inhibits the growth of bacteria,
307 termed as the minimal inhibitory concentration (MIC), we used the broth microdilution method
308 described by the Clinical and Laboratory Standards Institute (4). We made serial dilutions of 10×
309 concentrated peptides (10 µl) in duplicate in 96-well plates (Cat no. 3595, Corning, NY, USA).
310 We added 90 µl of logarithmic-phase bacteria at 1 × 10^6 CFU/ml (in TSB medium) to the peptides
311 and then incubated the plates at 37°C for 18 hours. We determined the MIC using OD600
312 measurements taken on a Spectra Max i3x spectrophotometer (Molecular Devices, CA, USA).

[1] = system: S. aureus MW2 (MRSA) exponential and persister cells; experiment: S. aureus persister cell and time-kill assays (MW2); type: cell-based, Staphylococcus aureus; settings: approximately 1 × 10^8 CFU, 10 × MIC
Method: 305 Minimal inhibitory concentration (MIC) assay
We made serial dilutions of 10×
We determined the MIC using OD600
Accordingly, we added 150 mM NaCl,
319 established protocol (5).
323 aureus VRS1) in PBS. To assess the killing kinetics of CIT-8 in persister cells, we added 1 ml of
324 cell suspension to the wells of a 2-ml deep-well assay block (Cat no. 3960, Corning, NY, USA)
We also included ciprofloxacin (at 10 μg/ml) for S.
326 aureus MW2 and linezolid (100 μg/ml) for S. aureus VRS1 as antibiotic controls. Additionally,
327 we included bithionol (at 10 μg/ml) as a positive control, known for its ability to kill stationary
328 phase persister cells (6). We incubated the plates at 37°C, with shaking at 225 rpm. At specific
329 times (0, 15, 30, 60, and 120 min), we collected 10 μl samples, diluted them serially, and then
330 plated them on tryptic soy agar (TSA) (BD Difco, NJ, USA) plates. We incubated the TSA plates
331 for 18 hours at 37°C for colony counting. We performed these experiments in duplicate. As a
332 comparison, we prepared the exponential cells of S. aureus MW2 and VRS1 in PBS and analyzed
333 their killing kinetics in the same manner as described for persister cells.

S. aureus MW2 = experiment: Cryo-electron microscopy; type: cell-based, Staphylococcus aureus; settings: 80 μg/mL, 60 minutes
Method: 506 containing 50 µl BacTiter-Glo reagent (Promega, WI, USA) and measured plate luminescence as
507 previously described (18) after 5 min of incubation at room temperature.
509 Cryo-electron microscopy (cryo-EM)
510 We statically treated 10 ml of an exponential-phase S. aureus MW2 culture (OD600 = 0.4,
For imaging, we vitrified the
512 bacteria cells using Leica EM-GP2® plunger (Leica Microsystems, Wetzlar, Germany) on R2×2
513 Quantifoil® carbon holey film (Micro Tools GmbH, Jena, Germany) grids as previously described
514 (19). Briefly, we applied a 4 µl of bacterial suspensions to the grids pre-cleaned in a Gatan Solarus
515 950 plasma cleaner (Gatan, Inc, USA), blotted with filter paper, and plunged into liquid ethane.
516 We stored the frozen grids under liquid nitrogen until used for microscopy. We then transferred
517 the grids into a JEM 2200FS electron microscope (JEOL Ltd, Akishima, Japan) operating at 200
518 keV and equipped with a field emission gun, in-column electron energy filter (omega type) and a
519 DE20 direct electron detector camera (Direct Electron Inc., CA, USA). We used a 20 eV energy
520 slit width during data acquisition. Total electron dose/image was ~15 electrons/Å2. Image pixel
521 size was 3.66 Å on the specimen scale.
523 Scanning electron microscopy (SEM)
524 We followed an established protocol with minor modification to perform SEM imaging of […]

[2] = system: S. aureus MW2 infected skin; experiment: Histopathology of skin (H&E, Gram stain), prophylactic model; type: in vivo, mice; settings: 2% w/w formulation, H&E and Gram stains
Text: 235 Supplemental Figure 13. Histopathology of vehicle and CIT-8 treated skin in the skin-abraded
236 prophylactic murine model infected with S. aureus MW2.
237 Panel A: Representative 10× images of H&E-stained murine skin sections from all n=32 animals
238 (n=8 per group). Scale bars: 0.05 mm. Panel B: Representative 40× images of Gram-stained murine
239 skin sections. Scale bars: 0.01 mm. White arrows (1-5) indicate key histopathological features; 1:
240 Disorganized epidermal layer with epidermal disruption; 2: Dense infiltration of
241 polymorphonuclear (PMN) and mononuclear (MN) cells in both the epidermis and dermis,
242 indicative of heightened inflammation; 3: More intact epidermis; 4: Reduced numbers of PMN
243 and MN cells; 5: Bacterial patches.
(1 picture or pasted object on this page, not shown here)

Q: Which MIC (S. aureus isolates; MRSA, S. aureus JE2 (MRSA)) does the source give for CN[C@H](CC(C)C)C(=O)N[C@H]1C(=O)N[C@@H](CC(N)=O)C(=O)N[C@H]2C(=O)N[C@H]3C(=O)N[C@H](C(=O)N[C@H](C(=O)O)c4cc(O)cc(O)c4-c4cc3ccc4O)[C@H](O)c3ccc(c(Cl)c3)Oc3cc2cc(c3O[C@@H]2O[C@H](CO)[C@@H](O)[C@H](O)[C@H]2O[C@H]2C[C@](C)(N)[C@H](O)[C@H](C)O2)Oc2ccc(cc2Cl)[C@H]1O [Vancomycin, reference compound] here?
A: 1 µg/mL (≈ 0.69 µM)

Q: What about the MIC (S. aureus isolates; S. aureus BF1 (clinical isolate)) of the same compound?
A: 0.5 µg/mL (≈ 0.345 µM)

Q: What about the MIC (S. aureus isolates; S. aureus BF2 (clinical isolate)) of the same compound?
A: 2 µg/mL (≈ 1.38 µM)

Q: And the MIC (S. aureus isolates; S. aureus BF3 (clinical isolate))?
A: 1 µg/mL (≈ 0.69 µM)

Q: What about the MIC (S. aureus isolates; S. aureus BF4 (clinical isolate)) of the same compound?
A: 2 µg/mL (≈ 1.38 µM)

Q: And the MIC (S. aureus isolates; S. aureus BF5 (clinical isolate))?
A: 1 µg/mL (≈ 0.69 µM)

Q: And the MIC (S. aureus isolates; S. aureus BF6 (clinical isolate))?
A: 1 µg/mL (≈ 0.69 µM)

Q: What about the MIC (S. aureus isolates; S. aureus BF7 (clinical isolate)) of the same compound?
A: 1 µg/mL (≈ 0.69 µM)

Q: What about the MIC (S. aureus isolates; S. aureus BF8 (clinical isolate)) of the same compound?
A: 2 µg/mL (≈ 1.38 µM)

Q: And the MIC (S. aureus isolates; S. aureus BF9 (clinical isolate))?
A: 0.5 µg/mL (≈ 0.345 µM)

Q: What about the MIC (S. aureus isolates; S. aureus BF10 (clinical isolate)) of the same compound?
A: 2 µg/mL (≈ 1.38 µM)

Q: And the MIC (S. aureus isolates; S. aureus BF11 (clinical isolate))?
A: 2 µg/mL (≈ 1.38 µM)

Q: What about the MIC (S. aureus isolates; VISA, S. aureus AR0215 (VISA)) of the same compound?
A: 2 µg/mL (≈ 1.38 µM)

Q: And the MIC (S. aureus isolates; VISA, S. aureus AR0216 (VISA))?
A: 4 µg/mL (≈ 2.76 µM)

Q: And the MIC (S. aureus isolates; VISA, S. aureus AR0217 (VISA))?
A: 2 µg/mL (≈ 1.38 µM)

Q: And the MIC (S. aureus isolates; VISA, S. aureus AR0219 (VISA))?
A: > 4 µg/mL

Q: And the MIC (S. aureus isolates; VISA, S. aureus AR0225 (VISA))?
A: 2 µg/mL (≈ 1.38 µM)

Q: What about the MIC (S. aureus isolates; VRSA, S. aureus VRS1 (VRSA)) of the same compound?
A: > 4 µg/mL

Q: For H-GLFKVIKKLLKVI-NH2 [CIT-8], which “Time to complete eradication of MRSA persister cells” value [1] is on record?
A: ≤ 30 min

Q: And the “Cryo-EM appearance of treated cells” value (S. aureus MW2)?
A: membrane disruption and perturbation

Q: And the “Histopathology of treated skin” value [2]?
A: more intact epidermis, reduced numbers of PMN and MN (less inflammation), and no bacterial biofilm patches

— article PMC12165799, “Antimicrobial peptide developed with machine learning sequence optimization targets drug resistant Staphylococcus aureus in mice” (The Journal of Clinical Investigation, 2025)
